The source of these data is patent US20250215029A1 (Recludix Pharma, Inc., priority 2022, published 2025).

pIC50: −log10 of the molar value. A value given as a limit tells only on which side of the number the result lay.

T1 sequence (P40763 whole entry): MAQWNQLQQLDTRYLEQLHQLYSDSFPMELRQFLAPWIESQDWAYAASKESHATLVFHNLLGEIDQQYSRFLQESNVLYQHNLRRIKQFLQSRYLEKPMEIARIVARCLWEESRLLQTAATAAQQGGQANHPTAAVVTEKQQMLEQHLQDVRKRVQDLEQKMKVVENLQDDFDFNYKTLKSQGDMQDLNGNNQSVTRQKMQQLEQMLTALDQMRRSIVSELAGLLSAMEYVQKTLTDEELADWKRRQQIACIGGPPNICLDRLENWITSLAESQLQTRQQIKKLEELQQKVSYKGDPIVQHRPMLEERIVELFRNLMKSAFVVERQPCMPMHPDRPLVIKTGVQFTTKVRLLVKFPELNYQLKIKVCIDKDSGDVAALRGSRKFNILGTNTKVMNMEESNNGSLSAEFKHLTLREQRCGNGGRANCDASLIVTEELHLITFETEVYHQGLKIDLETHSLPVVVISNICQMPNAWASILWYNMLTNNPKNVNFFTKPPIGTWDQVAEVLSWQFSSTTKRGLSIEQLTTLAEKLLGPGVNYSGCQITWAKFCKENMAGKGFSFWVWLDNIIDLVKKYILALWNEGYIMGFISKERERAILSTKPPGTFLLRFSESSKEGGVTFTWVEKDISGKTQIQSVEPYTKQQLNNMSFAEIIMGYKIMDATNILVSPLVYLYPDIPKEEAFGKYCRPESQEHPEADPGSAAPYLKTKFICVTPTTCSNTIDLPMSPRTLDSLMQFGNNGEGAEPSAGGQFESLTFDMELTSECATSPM

This experiment addresses T1, pY705-STAT3 in PBMC (Homo sapiens, UniProt P40763).
T1 construct: Cryopreserved Peripheral Blood Mononuclear Cells (PBMC) are from AllCells; host or cells: cryopreserved PBMC
The experiment is described as follows: MSD-pSTAT-PBMC Assay (pSTAT3, IL-6 stimulated). In kind it is cell-based. Particulars: PBMC, compound 3 hrs, then 10 ng/mL IL-6 for 10 min; Table 115; read-out: STAT3. Summed up: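 MSD electrochemiluminescence read-out: total STAT captured, probed with anti-pY641-STAT6 or anti-pY705-STAT3. Human PBMC, 3 h compound pretreatment, 10 min stimulation (IL-4 1 ng/mL or IL-6 10 ng/mL). Unstimulated signal subtracted, DMSO-normalized, variable-slope IC50.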
Consider `CCCOC(=O)[C@H](C)NP(=O)(Cc1ccc2sc(C(=O)N[C@H]3C[C@@H](C)C[C@H]4CC[C@@H](C(=O)N5CC(c6cnccc6N(C)C)C5)N4C3=O)cc2c1)Oc1ccccc1` (stereo partly drawn) [Compound 1021, propyl (((2-(((3S,6S,8R,9aR)-3-(3-(4-(dimethylamino)pyridin-3-yl)azetidine-1-carbonyl)-8-methyl-5-oxooctahydro-1H-pyrrolo[1,2-a]azepin-6-yl)carbamoyl)benzo [b]thiophen-5-yl)methyl)(phenoxy)phosphoryl)-L-alaninate], for which the pIC50 was above 7.00.
For `CCCOC(=O)[C@H](C)NP(=O)(Oc1ccccc1)[C@@H](F)c1ccc2sc(C(=O)N[C@H]3CCC[C@H]4CC[C@@H](C(=O)N5CC(c6cncc(F)c6N(C)C)C5)N4C3=O)cc2c1` (stereo partly drawn) [Compound 1022, propyl (((R)-(2-(((3S,6S,9aS)-3-(3-(4-(dimethylamino)-5-fluoropyridin-3-yl)azetidine-1-carbonyl)-5-oxooctahydro-1H-pyrrolo[1,2-a]azepin-6-yl)carbamoyl)benzo [b]thiophen-5-yl)fluoromethyl) (phenoxy)phosphoryl)-L-alaninate] the value was above 7.00.
To `CCCOC(=O)[C@H](C)NP(=O)(Oc1ccccc1)[C@H](F)c1ccc2sc(C(=O)N[C@H]3CCC[C@H]4CC[C@@H](C(=O)N5CC(c6cnccc6N6CCC6)C5)N4C3=O)cc2c1` (stereo partly drawn) [Compound 1024, propyl (((S)-(2-(((3S,6S,9aS)-3-(3-(4-(azetidin-1-yl)pyridin-3-yl)azetidine-1-carbonyl)-5-oxooctahydro-1H-pyrrolo[1,2-a]azepin-6-yl)carbamoyl)benzo [b]thiophen-5-yl)fluoromethyl) (phenoxy)phosphoryl)-L-alaninate] belongs 6.00 to 7.00; to `CCCOC(=O)[C@H](C)NP(=O)(Cc1ccc2sc(C(=O)N[C@H]3CCC[C@H]4CC[C@@H](C(=O)N5CC(c6cnccc6N(C)C)C5)N4C3=O)cc2c1)OCC(F)(F)F` (stereo partly drawn) [Compound 1025, propyl (((2-(((3S,6S,9aS)-3-(3-(4-(dimethylamino)pyridin-3-yl)azetidine-1-carbonyl)-5-oxooctahydro-1H-pyrrolo[1,2-a]azepin-6-yl)carbamoyl)benzo [b]thiophen-5-yl)methyl)(2,2,2-trifluoroethoxy)phosphoryl)-L-alaninate], above 7.00; to `CCCOC(=O)[C@H](C)NP(=O)(Oc1ccccc1)[C@@H](F)c1ccc2sc(C(=O)N[C@H]3CCC[C@H]4CC[C@@H](C(=O)N5CC(c6cncc(F)c6NC)C5)N4C3=O)cc2c1` (stereo partly drawn) [Compound 1026, propyl (((R)-fluoro(2-(((3S,6S,9aS)-3-(3-(5-fluoro-4-(methylamino)pyridin-3-yl)azetidine-1-carbonyl)-5-oxooctahydro-1H-pyrrolo[1,2-a]azepin-6-yl)carbamoyl)benzo [b]thiophen-5-yl)methyl)(phenoxy)phosphoryl)-L-alaninate], above 7.00.
To `CCCOC(=O)[C@H](C)NP(=O)(Oc1ccccc1)[C@@H](F)c1ccc2sc(C(=O)N[C@H]3CCC[C@H]4CC[C@@H](C(=O)N5CC(c6cnccc6N6CCC6)C5)N4C3=O)cc2c1` (stereo partly drawn) [Compound 1028, propyl (((R)-(2-(((3S,6S,9aS)-3-(3-(4-(azetidin-1-yl)pyridin-3-yl)azetidine-1-carbonyl)-5-oxooctahydro-1H-pyrrolo[1,2-a]azepin-6-yl)carbamoyl)benzo [b]thiophen-5-yl)fluoromethyl) (phenoxy)phosphoryl)-L-alaninate] belongs 6.00 to 7.00; to `CCCOC(=O)[C@H](C)NP(=O)(Oc1ccccc1)[C@@H](F)c1ccc2sc(C(=O)N[C@H]3C[C@@H](C)C[C@H]4CC[C@@H](C(=O)N5CC(c6cnccc6N(C)C)C5)N4C3=O)cc2c1` (stereo partly drawn) [Compound 1029, propyl (((R)-(2-(((3S,6S,8R,9aR)-3-(3-(4-(dimethylamino)pyridin-3-yl)azetidine-1-carbonyl)-8-methyl-5-oxooctahydro-1H-pyrrolo[1,2-a]azepin-6-yl)carbamoyl)benzo [b]thiophen-5-yl)fluoromethyl) (phenoxy)phosphoryl)-L-alaninate], above 7.00.
Turning to `CCCOC(=O)[C@H](C)NP(=O)(Oc1ccccc1)[C@@H](F)c1ccc2sc(C(=O)N[C@H]3CCC[C@H]4CC[C@@H](C(=O)N[C@H]5CN(c6ncc[nH]6)C[C@@H]5F)N4C3=O)cc2c1` (stereo partly drawn) [Compound 1030, propyl (((R)-fluoro(2-(((3S,6S,9aS)-3-(((3S,4S)-4-fluoro-1-(1H-imidazol-2-yl)pyrrolidin-3-yl)carbamoyl)-5-oxooctahydro-1H-pyrrolo[1,2-a]azepin-6-yl)carbamoyl)benzo [b]thiophen-5-yl)methyl)(phenoxy)phosphoryl)-L-alaninate], the pIC50 is below 5.52.
For `CCCOC(=O)[C@H](C)NP(=O)(Cc1ccc2sc(C(=O)N[C@H]3CCC[C@H]4CC[C@@H](C(=O)N5CC(c6cnccc6N6CCC6)C5)N4C3=O)cc2c1)Oc1ccccc1` (stereo partly drawn) [Compound 1031, propyl (((2-(((3S,6S,9aS)-3-(3-(4-(azetidin-1-yl)pyridin-3-yl)azetidine-1-carbonyl)-5-oxooctahydro-1H-pyrrolo[1,2-a]azepin-6-yl)carbamoyl)benzo [b]thiophen-5-yl)methyl)(phenoxy)phosphoryl)-L-alaninate] the value was above 7.00; for `CCCOC(=O)[C@H](C)NP(=O)(Cc1ccc2sc(C(=O)N[C@H]3CCC[C@H]4CC[C@@H](C(=O)N5CC(c6cnccc6N6CCOCC6)C5)N4C3=O)cc2c1)Oc1ccccc1` (stereo partly drawn) [Compound 1038, propyl (((2-(((3S,6S,9aS)-3-(3-(4-morpholinopyridin-3-yl)azetidine-1-carbonyl)-5-oxooctahydro-1H-pyrrolo[1,2-a]azepin-6-yl)carbamoyl)benzo [b]thiophen-5-yl)methyl)(phenoxy)phosphoryl)-L-alaninate], above 7.00.
On to `CCCOC(=O)[C@H](C)NP(=O)(Oc1ccccc1)C(F)c1ccc2sc(C(=O)N[C@H]3CCC[C@H]4CC[C@@H](C(=O)N5CC(c6cncnc6OC)C5)N4C3=O)cc2c1` (stereo partly drawn) [Compound 1042, propyl ((fluoro(2-(((3S,6S,9aS)-3-(3-(4-methoxypyrimidin-5-yl)azetidine-1-carbonyl)-5-oxooctahydro-1H-pyrrolo[1,2-a]azepin-6-yl)carbamoyl)benzo [b]thiophen-5-yl)methyl)(phenoxy)phosphoryl)-L-alaninate], for which the pIC50 is 6.00 to 7.00.
For `CCCOC(=O)[C@H](C)NP(=O)(Oc1ccccc1)C(F)c1ccc2sc(C(=O)N[C@H]3CCC[C@H]4CC[C@@H](C(=O)N5CC(c6cncnc6N(C)C)C5)N4C3=O)cc2c1` (stereo partly shown) [Compound 1043] the value was above 7.00; for `CCCOC(=O)[C@H](C)NP(=O)(Oc1ccccc1)[C@@H](F)c1ccc2sc(C(=O)N[C@H]3CCC[C@H]4CC[C@@H](C(=O)N5CC(c6cncc(F)c6O)C5)N4C3=O)cc2c1` (stereo partly drawn) [Compound 1060, propyl (((R)-fluoro(2-(((3S,6S,9aS)-3-(3-(5-fluoro-4-hydroxypyridin-3-yl)azetidine-1-carbonyl)-5-oxooctahydro-1H-pyrrolo[1,2-a]azepin-6-yl)carbamoyl)benzo [b]thiophen-5-yl)methyl)(phenoxy)phosphoryl)-L-alaninate], 6.00 to 7.00.
